The record followed here is patent US7183411B2, “Naphthol, quinoline and isoquinoline-derived urea modulators of vanilloid VR1 receptor” (Janssen Pharmaceutica N.V., priority 2002, dated 2007).

The target of assay [1] is T1, VR1 (rat spinal cord) (Rattus norvegicus, UniProt O35433).
T1 construct: Rat spinal cord was homogenized twice with a Polytron; from tissue; host or cells: rat spinal cord membranes
As to the kind of experiment: [3H]-RTX binding assay using rat tissue (spinal cord membranes). Conditions: cells marked (rat), read-out: Receptor binding Ki (rat). Here is the method:
Alternatively, a binding assay using rat tissue was used. Rat spinal cord was homogenized twice with a Polytron and centrifuged at 3000 rpm for 10 min in HEPES buffer containing 20 mM HEPES, pH 7.4, NaCl 5.8 mM, sucrose 320 mM, MgCl2 2 mM, CaCl2 0.75 mM and KCl 5 mM. The supernatant was then centrifuged at 18,000 rpm for 20 min. The pellet was saved in a tube and 10 ml assay buffer was added into the tube. The pellet and buffer were mixed with a Polytron. The assay contained 120 μg/ml membrane protein and 0.3–0.6 nM [^3H]-RTX (NEN, Boston) in a total volume of 0.5 ml HEPES buffer. Following-incubation for 60 min at 37 C, the samples were cooled down on ice, and 100 mg of α-acid glycoprotein were added into the samples. After centrifugation at 13,000 rpm for 15 min, the supernatant was aspirated and the tips of tubes were cut off and placed into 6 ml vials. Data were calculated according to the equation: % inhibition=(total binding−binding)*100/(total binding−non specific binding). Ki value values were calculated using a Prism program.

The subject of assay [2] is capsaicin-induced cough responses. In words: Capsaicin-induced cough (antitussive efficacy). It is filed as in vivo. Conditions: guinea pig, 25 mg/kg IP at -60 min; vehicle 3.0±0.5; P<0.001. As for the experimental part: The antitussive activity of intraperitoneally (IP) administered compound is assessed at a single dose level against casaicin-induced cough responses as compared to positive and vehicle controls. Thirty-six male Dunkin-Hartley guinea pigs (295–590 g, mean 425 g) are randomly allocated to one of three groups (n=12 guinea pigs per group). […] Guinea pigs are dosed IP at −60 min with vehicle (15% Solutol in 5% dextrose solution); the positive control codeine (25 mg/kg), or test compound (20 mg/kg in 15% Solutol in 5% dextrose solution). Individual guinea pigs are placed in an exposure chamber with an airflow of 3 L/min at −10 min to acclimatize. […] The mean±SEM number of capsaicin-induced cough responses recorded in vehicle pre-treated guinea pigs was 3.0±0.5. […] ANOVA statistical analysis was used to determine the level of significance.

T1 sequence (O35433 whole entry): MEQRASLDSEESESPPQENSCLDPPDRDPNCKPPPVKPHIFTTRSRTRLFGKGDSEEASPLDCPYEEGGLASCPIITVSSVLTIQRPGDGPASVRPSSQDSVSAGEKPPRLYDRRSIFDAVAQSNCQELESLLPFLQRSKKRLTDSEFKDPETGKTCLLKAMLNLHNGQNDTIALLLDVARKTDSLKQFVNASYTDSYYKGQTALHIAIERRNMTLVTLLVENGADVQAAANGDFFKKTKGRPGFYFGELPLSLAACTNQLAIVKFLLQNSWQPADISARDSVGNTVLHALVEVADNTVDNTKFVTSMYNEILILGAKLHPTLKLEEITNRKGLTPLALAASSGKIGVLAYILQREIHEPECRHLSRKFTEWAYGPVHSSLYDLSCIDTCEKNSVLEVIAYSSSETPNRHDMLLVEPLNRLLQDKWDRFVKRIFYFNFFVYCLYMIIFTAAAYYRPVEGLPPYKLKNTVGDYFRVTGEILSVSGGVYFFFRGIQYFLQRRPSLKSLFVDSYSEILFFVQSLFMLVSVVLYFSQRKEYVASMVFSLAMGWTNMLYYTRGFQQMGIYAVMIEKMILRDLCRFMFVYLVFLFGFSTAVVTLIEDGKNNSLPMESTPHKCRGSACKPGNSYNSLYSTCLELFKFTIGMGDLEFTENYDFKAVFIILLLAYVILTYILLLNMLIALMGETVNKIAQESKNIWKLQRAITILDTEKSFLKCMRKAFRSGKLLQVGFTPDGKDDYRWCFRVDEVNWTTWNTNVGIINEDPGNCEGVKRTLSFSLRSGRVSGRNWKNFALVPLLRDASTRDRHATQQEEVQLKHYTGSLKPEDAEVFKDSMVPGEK

Regarding `O=C(NCc1ccc(-c2cccs2)s1)Nc1cccc2ccc(O)cc12` [Compound 39], the Ki in assay [1] is 382 nM.

On to `COc1ccc2c3c1O[C@H]1[C@@H](O)C=C[C@H]4[C@@H](C2)N(C)CC[C@@]341` [codeine], for which the “number of capsaicin-induced cough responses (mean±SEM)” value in assay [2] came out at 0.58±0.15 coughs.
